For assay [1], the system named is Hb9-GFP ES cells. Nature of the assay: Efficiency of motor neuron specification (Hb9-GFP+ cells). The assay is classed as cell-based, mouse.
Assay [2] deals with embryoid bodies from ES cells. The experiment in a line: Dorso-ventral progenitor marker expression in embryoid bodies. The settings on record: 1 μM HhAg1.3, absence of RA. In kind it is cell-based, mouse. As for the experimental part:
(§1) Immunocytochemistry on ES cell-derived MNs and EBs was performed as previously described (Wichterle et al., 2002). Antibodies against the following proteins were used in the analysis during this study: Otx2, Hoxa5, Hoxc8, Hoxc6, Hoxc9, Hoxd9, Hoxd10, Foxp1, Lhx3, Pea3, Scip, NeuN, dsRed, NF.
To determine whether motor neuron progenitors are correctly specified at 1 μM concentrations of HhAg1.3 expression pattern of a series of DV progenitor markers were examined.
The endogenous Shh signaling centers have been identified as clusters of Foxa2+ cells expressing Shh (FIG. 2D).
Immunocytochemistry on dissociated ES-MNs and cryosectioned EBs was performed as previously described (Wichterle et al., 2002). In this study, the following antibodies were used: goat anti-Meis1 (Santa Cruz Biotechnology, SCB), mouse anti-Lhx3 (Developmental Studies Hybridoma Bank, DSHB), mouse anti-Lhx1/2 (DSHB), mouse anti-Nkx2.2 (DSHB), goat anti-Hoxc6 (SCB), rabbit anti-Hoxd9 (SCB), rabbit anti-Otx2 (kindly provided by G. Corte), mouse anti-Isl1 (DSHB), mouse anti-Hoxc 8 (DSHB), mouse anti-NeuN (Chemicon), rabbit anti-dsRed (Clontech), rabbit anti-Brachyury (SCB), mouse anti-Sonic Hedgehog (DSHB), mouse anti-FoxA2 (DSHB), mouse anti-Pax7 (DSHB), mouse anti-Hb9 (DSHB), guinea pig anti-Hb9 (kindly provided by the Project ALS laboratory). […]

The subject of assay [3] is Hb9-GFP ES cells. Conditions: MNs generated in the presence of RA (Wichterle et al., 2002); cited from earlier work.
The test system of assay [4] is differentiating ES cells / ES-MNs. The experiment in a line: Rostro-caudal patterning of differentiating ES cells (Hox / positional marker immunostaining). In kind it is cell-based, mouse. As for the experimental part: Differentiation of cervical level motor neurons from mouse ES cells was performed as previously described (Wichterle et al., 2002). For differentiation of caudal brachial level MNs from ES cells, ES cells were grown in ES cell medium for two days, dissociated and plated into non-adherent tissue culture dishes using ADFNK medium at a density of 20,000 cells/ml. Medium is changed each day but not on Day 3 and Day 4 of differentiation (three and four days after dissociation of ES cells and plating into differentiation medium, respectively). Addition of any factors to differentiating embryonic bodies (EBs) was performed on Day 3. These included: 1 μg/ml Dickopf-1 Dkk1 (R&D Systems), FGF Receptor Inhibitor (PD173074, 100 nM final concentration), FGFb (Recombinant Human, FTF-basic, 120-17, PeproTech), rhGdf11 (R&D Systems, Cat#1958-GD). GDNF (10 ng/ml, R&D Systems) was supplemented on Day 5 of differentiation in selected cultures.
(§2) For immunocytochemical analysis, embryonic bodies (EBs) were dissociated using 0.05% Trypsin-EDTA on Day 6 and plated at low densities on laminin coated coverslips using ADFNB medium supplemented with 10 ng/ml Glial cell-derived neurotrophic factor (GDNF). For quantification of MN subtypes, EBs were collected on Day 6 and dissociated using 0.05 Trypsin-EDTA. Dissociated cells were plated on laminin coated coverslips using ADFNB medium (DMEM/F12, Neurobasal, 1 ml B27 50× supplement and optional 5 ng/ml of GDNF to enhance survival of MN cultures) and fixed with 4% PFA one day later.
as §1
For each experiment, 10 distinct randomized image fields were taken using a confocal microscope LSM Zeiss Meta 510. Expression of all markers used for quantifications was gated to GFP positive cells, ES cell-derived spinal MNs. Images were analyzed for the expression of the above stated markers in the context of the ES cell-derived caudal brachial MNs. Each quantification is the result of at least three independent experiments (three independent differentiation experiments).
All experiments were performed with HBG3 ES cell line harboring Hb9-GFP transgene (Wichterle et al., 2002) and key experiments were confirmed using a control MM13 ES cell line. Differentiation of HBG3 ES cell line under RA/Hh conditions into rostral cervical MNs was performed as previously described (Wichterle et al., 2002; Wichterle and Peljto, 2008). For production of cervical MNs, ES cells were plated at 50,000 cells/ml in ADFNK differentiation medium [Advanced D-MEM/F-12 (Invitrogen): Neurobasal medium (Invitrogen) (1:1), 10% Knockout Serum Replacement (Invitrogen), […] L-Glutamine (Invitrogen), 0.1 mM β-mercaptoethanol (Sigma), and Pen/Strep (Invitrogen)]. Medium was completely changed on days 1, 2 and of differentiation. EBs were split 1:4 on day 2 of differentiation and the medium was supplemented with 1 μM all-trans retinoic acid (RA, Sigma) and Hh agonist (0.5 μM SAG, Calbiochem or 1 μM HhAg1.3, (Frank-Kamenetsky et al., 2002)). To generate caudal brachial level MNs from ES cells under FGF/Hh conditions, ES cells were plated into non-adherent tissue culture dishes in ADFNK medium (˜20,000 cells/ml). Embryoid bodies (EBs) were split 1:4 on day 2 of differentiation and the medium was changed on days 1, 2 and 5. Selected cultures were supplemented with the following reagents: 10 nM-1 μM RA, 10 nM-1 μM Hh Agonist, 1 μg/ml recombinant mouse Dickkopf-1 (R&D Systems), 50-100 nM FGF/VEGF Receptor Tyrosine Kinase Inhibitor (PD173074, Calbiochem) (Mohammadi et al., 1998), 100-625 ng/ml recombinant human bFGF (PeproTech), 20 ng/ml recombinant human Gdf11/Bmp11 (R&D Systems), 10 ng/ml recombinant rat GDNF (R&D Systems). […]

The next assay has as its system ES-MNs. The experiment in a line: Columnar and divisional identity of ES-MNs (FoxP1, Lhx3, Lhx1 immunostaining). The assay is classed as cell-based, mouse. As for the experimental part:
as §2, §1
For each experiment, 10 distinct randomized image fields were taken using a confocal microscope LSM Zeiss Meta 510. Expression of all markers used for quantifications was gated to GFP positive cells, ES cell-derived spinal MNs. Images were analyzed for the expression of the above stated markers in the context of the ES cell-derived caudal brachial MNs. Each quantification is the result of at least three independent experiments (three independent differentiation experiments). […]

Entries after “also recorded” stand apart in the source; their conditions may differ.

Consider `CNC1CCC(N(Cc2cccc(-c3ccncc3)c2)C(=O)c2sc3ccccc3c2Cl)CC1` (stereo not drawn) [HhAg1.3], for which, in the assay on Hb9-GFP ES cells [1] (10 nM, 50 nM, 100 nM, 1 μM on day 2, EBs dissociated day 7), the “Percentage of Hb9-GFP+ cells with increasing Hh agonist” value was “does not significantly change the percentage of Hb9-GFP^+ cells”. Besides, in the assay on Hb9-GFP ES cells [1] (ADFNK medium, >500 nM), the “Motor neuron generation at high HhAg1.3 concentrations” value is listed as “failure to generate motor neurons”. Besides, the “GFP positive MNs, % of all cells” value with Hb9-GFP ES cells [1] (ADFNK medium, absence or low concentrations of HhAg1.3 (<100 nM) added Day 2, Day 6) was 8-10%. For the same molecule, in assay [2], the “Expression of Nkx2.2 and Foxa2 (Hnf3β)” value is reported as “most cells within embryoid bodies expressed the ventral-most markers”; the “Expression of Pax7, Pax6 and Olig2” value is recorded as “not detected”. The “HhAg1.3 concentration that efficiently induces cervical MNs” value with Hb9-GFP ES cells [3] is 0.5 to 2 µM.
In the case of `CC1=C(/C=C/C(C)=C/C=C/C(C)=C/C(=O)O)C(C)(C)CCC1` [RA, all-trans retinoic acid, reference compound], the “Hoxc8 expression in ES-MNs, loss after RA” value in assay [4] (10 nM RA on day 3 of differentiation, two independent experiments) is listed as roughly 10%. Further, in assay [4] (Example 1, EBs supplemented on Day 3, markers examined two to four days later), the “Rostro-caudal positional marker expression / segmental identity” value is listed as “induced rostral cervical identity characterized by Hoxa5 expression”. For the same molecule, in assay [4] (Example 2, 10 nM-1 μM on day 3, stained day 7), the “Rostro-caudal identity of MNs after RA” value is on record as “specification of Hoxa5^+ rostral cervical MNs; also recorded: generation of Hoxa5^+ cervical MNs lacking expression of more posterior Hox genes”. Further, in assay [4] (RA on day 4 or 5 of differentiation), the “Rostro-caudal identity (Hoxc8+ ES-MNs) after late RA” value is “did not change the rostro-caudal positional identity; also recorded: does not result in significant changes in the numbers of Hoxc8^+ ES-MNs”. Also, the “FoxP1+ ES-MNs expressing Lhx1” value with ES-MNs (RA (1 μM) on day 5 of differentiation, analysed day 7) is 15%. Besides, the “Lhx1+ BrdU- ES-MNs” value in the assay with ES-MNs (RA on day 5, BrdU from day 5 onwards, dissociated day 6) is recorded as roughly 10%.

(Values after patent US8969081B2, “Caudal motor neuron derived from embryonic stem cells under conditions essentially free of any retinoid” (The Trustees of Columbia University in the City of New York, priority 2008, dated 2015).)
